According to patent US11136351B2 (priority 2016, dated 2021):
No end group written: not given here.

Assays:
Assay type in all cases: cell-based
[1] = test system: HVA calcium channels in rat DRG neurons; conditions: for rat HVA Ca^2+ channel I/Icontrol ± SEM (n): 1 μM
[2] = biological target: T1, human α7 nAChR (Homo sapiens, UniProt P36544); conditions: 3 μM
T1 construct: expressed in transfected cells; host or cells: Xenopus laevis oocytes

[3] = biological target: T2, human α9α10 nAChR (Homo sapiens, UniProt Q9GZZ6+Q9UGM1); conditions: 3 μM
T2 construct: expressed in transfected cells; host or cells: Xenopus laevis oocytes
T2 sequence (Q9UGM1 26-479 limits assumed): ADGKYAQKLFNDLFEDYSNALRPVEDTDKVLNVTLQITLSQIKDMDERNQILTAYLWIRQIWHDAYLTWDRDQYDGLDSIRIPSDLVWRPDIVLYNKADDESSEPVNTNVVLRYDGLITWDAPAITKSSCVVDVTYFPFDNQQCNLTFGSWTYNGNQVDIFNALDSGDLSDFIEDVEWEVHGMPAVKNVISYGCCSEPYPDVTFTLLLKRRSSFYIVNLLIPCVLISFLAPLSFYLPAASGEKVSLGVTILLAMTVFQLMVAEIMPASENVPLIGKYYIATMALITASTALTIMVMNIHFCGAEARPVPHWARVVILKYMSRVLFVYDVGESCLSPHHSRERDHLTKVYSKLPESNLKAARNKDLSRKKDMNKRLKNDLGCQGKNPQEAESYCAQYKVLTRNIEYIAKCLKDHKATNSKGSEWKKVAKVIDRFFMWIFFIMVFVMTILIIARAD
T2 sequence (Q9GZZ6 25-450): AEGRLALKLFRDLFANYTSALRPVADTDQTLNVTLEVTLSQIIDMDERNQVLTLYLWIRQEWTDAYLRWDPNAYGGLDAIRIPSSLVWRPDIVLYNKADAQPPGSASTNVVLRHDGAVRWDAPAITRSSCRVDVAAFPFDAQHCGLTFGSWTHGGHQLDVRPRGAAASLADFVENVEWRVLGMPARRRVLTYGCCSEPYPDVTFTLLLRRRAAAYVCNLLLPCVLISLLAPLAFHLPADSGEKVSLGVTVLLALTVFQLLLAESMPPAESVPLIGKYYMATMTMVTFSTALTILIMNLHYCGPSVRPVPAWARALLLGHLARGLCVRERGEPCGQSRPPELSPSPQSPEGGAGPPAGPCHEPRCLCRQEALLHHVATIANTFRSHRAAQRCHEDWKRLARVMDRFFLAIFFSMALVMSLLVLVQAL

| Substance | inhibition of HVA calcium currents by globular, ribbon and beads isomers [1] | rat HVA Ca^2+ channel I/Icontrol ± SEM (n) [1] | human α7 nAChR I/Icontrol ± SEM (n) [2] | human α9α10 nAChR I/Icontrol ± SEM (n) [3] |
| --- | --- | --- | --- | --- |
| Pu1.2: native full length Pu1.2, SEQ ID No. 41: G G C C S Y P P C I A N N P L C (GGCCSYPPCIANNPLC; not fully specified; ends and bridges not checked) | found to inhibit HVA calcium currents | 0.73 ± 0.02 (12) | 0.98 ± 0.03 (6) | 1.01 ± 0.04 (4) |
| Pn1.2: native full length Pn1.2, SEQ ID No. 42: G C C S H P P C F L N N P D Y C (GCCSHPPCFLNNPDYC; not fully specified; ends and bridges not checked) | found to inhibit HVA calcium currents | 0.78 ± 0.03 (11) | 0.006 ± 0.005 (5) | 0.012 ± 0.001 (4) |
